In patent EP1038864A1, “NOVEL METALLOPROTEINASE INHIBITORS” (FUJI YAKUHIN KOGYO KABUSHIKI KAISHA, priority 1997, dated 1999) one finds IC50 and AUC data, which are given here for 17 molecules.

Like-named read-outs stand apart in the source and are kept apart here.

Data set [1] concerns the target T1, human fibroblast collagenase (Homo sapiens, UniProt P03956).
T1 sequence (P03956 100-469): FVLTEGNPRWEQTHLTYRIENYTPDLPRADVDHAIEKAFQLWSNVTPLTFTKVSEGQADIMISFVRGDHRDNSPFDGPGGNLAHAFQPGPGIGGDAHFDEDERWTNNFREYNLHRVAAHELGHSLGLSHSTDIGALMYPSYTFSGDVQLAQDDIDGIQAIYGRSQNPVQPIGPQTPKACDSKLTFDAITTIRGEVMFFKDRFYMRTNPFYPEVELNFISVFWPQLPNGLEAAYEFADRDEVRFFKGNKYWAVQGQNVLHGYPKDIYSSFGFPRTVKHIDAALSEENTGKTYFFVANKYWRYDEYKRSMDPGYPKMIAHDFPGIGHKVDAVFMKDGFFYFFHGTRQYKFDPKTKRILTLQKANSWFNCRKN
Description: Assay for inhibition of collagenase (fluorescein-labeled bovine type I collagen substrate). Format: biochemical. The procedure:
(§1) Described below are assays for biological activities of the compounds according to the present invention, formulations, dosage forms and dosage levels thereof, and miscellaneous matters. The efficacy of the compounds represented by the formula (I) according to the present invention as inhibitors of human fibroblast collagenase (metalloproteinase involved in the breakdown of tissues) is determined by a procedure based on the method of Y. Murawaki et al., Journal of Hepatology, 18, p328-334 (1993). The efficacy of the compounds (I) of this invention as inhibitors of human fibroblast stromelysin is determined by a procedure based on the method of S. S. Twining, Anal. Biochem., 143, p30 (1984). The assay results obtained are shown hereinbelow, together with biological examples which illustrate embodiments of the assay protocols.
The efficacy of compounds of the present invention to act as inhibitors of human fibroblast collagenase was determined by the procedure of Y. Murawaki et al. (Journal of Hepatology, 18, p.328-334, 1993), compared with a reference compound.
Procollagenase was activated by incubation with 2 mM 4-aminophenylmercuric acetate (APMA) at 35°C for 2 hours. The inhibition was assayed using, as a substrate, fluorescein-labeled bovine type I collagen. To a solution of the substrate (0.5 mg/ml) in a 50 mM Tris-HCl buffer, pH 7.5, containing 0.4M aqueous sodium chloride and 10 mM aqueous […] was added the activated collagenase. The resultant solution was incubated at 35°C for 2 hours. The digestion of the substrate with the enzyme was stopped by addition of 80 mM o-phenanthroline, followed by addition of a porcine elastase solution formed by dissolving 25 µg/ml porcine elastase in the aforementioned Tris-HCl buffer. The mixture was incubated at 37°C for 10 minutes. To the resulting solution was added 70% ethanol, and a 170 mM Tris-HCl buffer, pH 9.5, containing 0.67M aqueous sodium chloride. Undigested substrates were precipitated by centrifugation at 3000 x g for 20 minutes. The supernatant was collected and the fluorescence was read using an excitation wavelength of 495 nm and an emission wavelength of 520 nm. The inhibitory potency of the compounds was calculated. […] The resulting assay data for representative examples are shown in Table 1, compared with the reference compound. […]

Data set [2] addresses human fibroblast stromelysin (Homo sapiens, UniProt P08254). Description: Assay for inhibition of stromelysin (fluorescein-labeled casein substrate). Format: biochemical. The procedure:
as §1
The efficacy of compounds of the present invention to act as inhibitors of human fibroblast stromelysin was determined by the procedure of Twining (Anal. Biochem., 143, p.30, 1984), compared with a reference compound.
Prostromelysin was activated by incubation with 20 µg/ml human plasmin at 37°C for 2 hours, and the reaction was stopped by addition of 2.8 mg/ml aqueous diisopropyl fluorophosphate. The inhibition was assayed using, as a substrate, fluorescein-labeled casein. To a solution of the substrate (1 mg/ml) in a 50 mM Tris-HCl buffer, pH 7.8, containing 10mM aqueous calcium chloride was added the activated stromelysin. The resultant solution was incubated at 37°C for 2 hours. The digestion of the substrate with the enzyme was stopped by addition of 5% trichloroacetic acid. Undigested substrates were precipitated by centrifugation at 3000 x g for 20 minutes. The supernatant was collected, followd by additon of a 0.5M Tris-HCl buffer, pH 8.5. The fluorescence was read using an excitation wavelength of 495 nm and an emission wavelength of 520 nm. The inhibitory potency of the compounds was calculated. […] The resulting assay data for representative examples are shown in Table 2, compared with the reference compound.

Another data set addresses TNF-α Convertase (Homo sapiens, UniProt P78536). Description: Assay for inhibition of TNF-α production in LPS-stimulated, PMA-differentiated U937 cells.
The next data set can be described thus: in vivo. As to conditions: rat, po, 100 mg/kg.
Where [3] appears, read: activated human fibroblast procollagenase, 35°C, 2 hours, pH 7.5, read-out: Inhibition of MMP-1.
Where [4] appears, read: plasmin-activated human fibroblast prostromelysin, 37°C, 2 hours, pH 7.8, read-out: Inhibition of MMP-3.
Setting [5] is: read-out: Inhibition of MMP-3, plasmin-activated human fibroblast prostromelysin, 37°C, 2 hours, pH 7.8.

TNF-α Convertase, sequence (P78536 215-824): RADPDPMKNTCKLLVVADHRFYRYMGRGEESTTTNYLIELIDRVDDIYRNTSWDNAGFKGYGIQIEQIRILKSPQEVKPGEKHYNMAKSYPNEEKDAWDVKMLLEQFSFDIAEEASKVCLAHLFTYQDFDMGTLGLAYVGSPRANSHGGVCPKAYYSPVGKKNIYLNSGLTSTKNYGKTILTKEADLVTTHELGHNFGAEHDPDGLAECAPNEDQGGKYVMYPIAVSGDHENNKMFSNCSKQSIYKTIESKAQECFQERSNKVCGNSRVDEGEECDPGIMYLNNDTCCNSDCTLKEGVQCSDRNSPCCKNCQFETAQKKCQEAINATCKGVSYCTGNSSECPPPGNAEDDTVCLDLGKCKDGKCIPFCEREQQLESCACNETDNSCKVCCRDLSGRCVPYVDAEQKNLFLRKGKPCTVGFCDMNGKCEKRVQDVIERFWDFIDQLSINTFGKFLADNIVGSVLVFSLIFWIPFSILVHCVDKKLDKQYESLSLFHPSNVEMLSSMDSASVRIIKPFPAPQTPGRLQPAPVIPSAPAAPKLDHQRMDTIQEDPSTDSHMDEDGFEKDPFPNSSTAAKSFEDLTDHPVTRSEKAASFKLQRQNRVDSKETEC
human fibroblast stromelysin, sequence (P08254 100-477): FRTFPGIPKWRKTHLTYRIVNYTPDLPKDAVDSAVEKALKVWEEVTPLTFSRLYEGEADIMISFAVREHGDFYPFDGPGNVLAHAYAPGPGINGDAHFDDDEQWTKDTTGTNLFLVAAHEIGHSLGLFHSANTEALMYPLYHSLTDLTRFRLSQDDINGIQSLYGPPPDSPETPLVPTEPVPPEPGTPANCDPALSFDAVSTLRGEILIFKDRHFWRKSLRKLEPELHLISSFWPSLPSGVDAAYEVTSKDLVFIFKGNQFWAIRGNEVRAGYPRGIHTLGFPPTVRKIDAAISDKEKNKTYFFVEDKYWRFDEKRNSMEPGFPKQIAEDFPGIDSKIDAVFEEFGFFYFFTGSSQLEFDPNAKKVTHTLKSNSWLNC
Description for TNF-α Convertase: Human monocytic leukemia cell line U937 (human histiocytic lymphoma cell line U937) cells were cultured in RPMI 1640 (Nissui Pharmaceutical Co., Ltd., Japan) supplemented with 5% fetal calf serum (FCS; IBL, Japan) in an incubator at 37°C under 5% CO2, then transferred to multiplates at a density of 1 x 10^6 cells/1 ml/well, and incubated overnight in the presence of 10^-7 M phorbol 12-myristate 13-acetate (Wako Pure Chemical Industries, Ltd., Japan) to form differentiated macrophage-like cells. To the resultant cells was added E. coli O127:B8 lipopolysaccaride (LPS, 0.1 µg/ml; Sigma) alone or along with each compound of the present invention, and the treated cells were then incubated for 6 hours in an incubator under 5% CO2 at 37°C. After the incubation, the cultures were collected and centrifuged at 3000 rpm for 10 minutes to give supernatants which were diluted with purified water and then assayed using a TNF-α assay kit, Genzyme (Table 3).
Description for in vivo: Each compound of the present invention was dissolved in distilled water for injection and orally administered to rats (Lewis strain line, male, body weight: about 200 g) at a dose of 100mg/kg. From 30 minutes to 4 hours after the administration, a series of blood chronologically collected from rat fundus oculi were centrifuged (3000rpm for 10 minutes at 4°C) to give plasma samples. Each plasma sample (200 µl) was filtered through an ultrafiltration membrane by centrifugation at 1500 x G for 3 minutes using a micropartition UF unit (Centrifree-MPS-3: 30,000 MW cut-off, Amicon Corp., Beverly, MA). […] The reaction was stopped by adding 900 µl of 3% aqueous acetic acid to the reaction mixture. The fluorescence of the resulting solution was read using an excitation wavelength of 325 nm and an emission wavelength of 393 nm. The concentration of each test compound in rat plasma samples was calculated using a standard curve which was prepared based on a variety of doses.

`CNC(=O)[C@H](CCCNC(=N)N)NC(=O)[C@H](CC(C)C)C(CC(C)C)C(=O)NO` (single isomer, unassigned) [Compound No. 24, N^a-[4-(Hydroxyamino)-2(R),3(R or S)-diisobutylsuccinyl]-L-arginine N-methylamide · 1 acetate]: the IC50 turned out to be 5 nM in data set [1], 18 nM in data set [2] and 480 nM against TNF-α Convertase.

With `CC(=N)NCCCCC(NC(=O)C(CC(C)C)C(CCCc1ccccc1)C(=O)NO)C(=O)NCCO` (single isomer, unassigned) [Compound No. 36, N^a-[4-(Hydroxyamino)-2(R)-isobutyl-3(R or S)-(3-phenylpropyl)-succinyl]-N^e-acetimidoyl-L-lysine N-(2-hydroxyethyl)amide · 1 acetate], the IC50 was found to be 14 nM in data set [1] (setting [3]) and 9 nM in data set [2] (setting [4]). As to `CNC(=O)C(CCCNC(=N)N)NC(=O)C(CC(C)C)C(Cc1ccc(CNS(=O)(=O)c2ccc(C)cc2)cc1)C(=O)NO` (single isomer, unassigned) [Compound No. 50, N^a-[4-(Hydroxyamino)-2(R)-isobutyl-3(R or S)-[p-(p-toluenesulfonamidomethyl)benzyl]succinyl]-L-arginine N-methylamide · 1 acetate], the IC50 in data set [1] (setting [3]) was found to be 13 nM; in data set [2] (setting [4]), 9 nM; against TNF-α Convertase, 599 nM. On to `CNC(=O)C(CCCNC(=N)N)NC(=O)C(CC(C)C)C(Cc1ccc(CN2C(=O)c3ccccc3C2=O)cc1)C(=O)NO` (single isomer, unassigned) [Compound No. 51, N^a-[4-(Hydroxyamino)-2(R)-isobutyl-3(R or S)-(p-phthalimidomethylbenzyl)succinyl]-L-arginine N-methylamide · 1 acetate], for which the IC50 in data set [1] (setting [3]) is 9 nM; in data set [2] (setting [4]), 2 nM; at TNF-α Convertase, 426 nM. `CNC(=O)[C@H](CCCCN)NC(=O)[C@H](CC(C)C)C(CCCc1ccc(CN)cc1)C(=O)NO` (single isomer, unassigned) [Compound No. 61, N^a-[4-(Hydroxyamino)-2(R)-isobutyl-3(R or S)-(3-(p-aminomethylphenyl)propyl]succinyl]-L-lysine N-methylamide· 2 acetate] registered an AUC at 4 h in “in vivo” of 13800 ng·h/mL. The IC50 was determined as 23 nM in data set [2] (setting [5]) and 1100 nM on TNF-α Convertase (read-out: Inhibition of TACE, U937 cells, LPS 0.1 µg/ml, 6 hours, TNF-α in supernatant by assay kit). Regarding `CCCCOCCC(C(=O)NO)[C@@H](CC(C)C)C(=O)N[C@@H](CCCCN)C(=O)NC` (single isomer, unassigned) [Compound No. 69, N^a-[4-(Hydroxyamino)-2(R)-isobutyl-3(R or S)-(2-n-butyloxyethyl)succinyl]-L-lysine N-methylamide· 1 acetate], the AUC at 4 h in “in vivo” was 3340 ng·h/mL. The IC50 in data set [2] (setting [5]) worked out at 20 nM.

For `CNC(=O)[C@H](CCCCN)NC(=O)[C@H](CC(C)C)C(CCCc1cccc(C(=O)OC)c1)C(=O)NO` (single isomer, unassigned) [Compound No. 71, N^a-[4-(Hydroxyamino)-2(R)-isobutyl-3(R or S)-[3-(m-methoxycarbonylphenyl)propyl]succinyl]-L-lysine N-methylamide· 1 acetate], the figures for the IC50 (in data set [1] (setting [3]); at TNF-α Convertase) were 4 nM and 352 nM, respectively.

`CNC(=O)[C@H](CCCCN)NC(=O)[C@H](CC(C)C)C(CCCc1ccc(O)cc1)C(=O)NO` (single isomer, unassigned) [Compound No. 72, N^a-[4-(Hydroxyamino)-2(R)-isobutyl-3(R or S)-[3-(p-hydroxyphenyl)propyl]succinyl]-L-lysine N-methylamide· 1 acetate]: the AUC at 4 h in the data set “in vivo” was 4040 ng·h/mL. Moreover, the IC50 at TNF-α Convertase came to 250 nM. Take `CNC(=O)C(CCCN)NC(=O)C(CC(C)C)C(CCCc1ccc(CNC(=N)N)cc1)C(=O)NO` (single isomer, unassigned) [Compound No. 81, N^a-[4-(Hydroxyamino)-2(R)-isobutyl-3(R or S)-[3-(p-guanidomethylphenyl)propyl]succinyl]-L-ornithine N-methylamide · 2 acetate]: the IC50 in data set [1] (setting [3]) stood at 13 nM; against TNF-α Convertase, 737 nM.

For `CNC(=O)C(CCCCN)NC(=O)C(CC(C)C)C(CCCN1C(=O)N(C)C(C)(C)C1=O)C(=O)NO` (single isomer, unassigned) [Compound No. 82, N^a-[4-(Hydroxyamino)-2(R)-isobutyl-3(R or S)-(3-(3,4,4-trimethyl-2,5-dioxo-imidazolidin-1-yl)propyl]succinyl]-L-lysine N-methylamide], the IC50 in data set [1] (setting [3]) amounted to 4 nM. On to `CC(C)CC(C(=O)NO)[C@@H](CC(C)C)C(=O)N[C@@H](Cc1ccc(CN)cc1)C(=O)NCCC(=O)O` (single isomer, unassigned) [Compound No. 84, N^a-[4-(Hydroxyamino)-2(R),3(R or S)-diisobutylsuccinyl]-4'-aminomethyl-L-phenylalanine N-(2-carboxyethyl)amide· 1 acetate], for which the IC50 in data set [1] (setting [3]) came to 11 nM. Take `CNC(=O)C(CCCNC(=N)N)NC(=O)C(CC(C)C)C(C)C(=O)NO` [Compound No. 25, N^a-[4-(Hydroxyamino)-2(R)-isobutyl-3(RS)-methylsuccinyl]-L-arginine N-methylamide · 1 acetate]: the IC50 in data set [1] (setting [3]) turned out to be 10 nM. As to `CNC(=O)C(CCNC(=N)N)NC(=O)C(CC(C)C)C(CC(C)C)C(=O)NO` [Compound No. 27, N^4-[3-Guanidino-1(S)-methylcarbamoylpropyl]-N^1-hydroxy-3(R),2(RS)-diisobutylsuccinamide · 1 acetate], the IC50 in data set [1] (setting [3]) turned out to be 7 nM; in data set [2] (setting [4]) it was 60 nM.

`CNC(=O)C(CCCCNC(C)=N)NC(=O)C(CC(C)C)C(CCCc1ccccc1)C(=O)NO` [Compound No. 30, N^a-[4-(Hydroxyamino)-2(R)-isobutyl-3(RS)-(3-phenylpropyl)-succinyl]-N^e-acetimidoyl-L-lysine N-methylamide · 1 acetate]: the IC50 in data set [1] (setting [3]) amounted to 10 nM; in data set [2], 12 nM. Consider `CC(=N)NCc1ccc(CC(NC(=O)C(CC(C)C)C(CC(C)C)C(=O)NO)C(=O)NCCO)cc1` [Compound No. 91, N^a-[4-(Hydroxyamino)-2(R),3(RS)-diisobutylsuccinyl]-4'-acetimidoyliminomethyl-L-phenylalanine N-(2-hydroxyethyl)amide· 2 acetate], for which, in data set [1] (setting [3]), the IC50 amounted to 17 nM. Still for that read-out and setting: the same measure for `CCCOC[C@H](C(=O)N[C@@H](Cc1ccc(OC)cc1)C(=O)NC)[C@H](CSC(C)C)C(=O)NO` [Reference Compound No. 1, N-[4-(N-hydroxyamino)-2(R)-n-propyloxymethyl-3(S)-isopropyl-thiomethylsuccinyl)-O-methyl-L-tyrosine-N-methylamide, reference compound]: 11 nM. For `CNC(=O)[C@@H](NC(=O)[C@H](CC(C)C)[C@H](O)C(=O)NO)C(C)(C)C` [Reference Compound No. 2, reference compound], the AUC at 4 h in “in vivo” worked out at 1570 ng·h/mL.
